According to patent US20220217975A1, “GREEN FORMULATION TO REDUCE VOLATILITY AND LEACHING OF PESTICIDES” (POLITECNICO DI TORINO, priority 2019, published 2022):
Values after ≈ are worked out from the molar mass of the structure shown. Like-named read-outs stand apart in the source and are kept apart here.

Legend:
[1] = cited from earlier work
[2] = dicamba active ingredient; cited from earlier work
[3] = Volatility test of the active ingredient; assay type: physicochemical; conditions: 200 mL deionized water, 92 mg active ingredient, stirred open at 300 rpm, over 4 days, FIG. 6
Procedure: The procedure involved the use of three solutions: • Solution A: formulation of the following patent suspended in 200 mL of deionized water; • Solution B: pure dicamba active ingredient, dissolved in 200 mL of deionized water; • Solution C: 200 mL of deionized water.
All the previous solutions were stirred without lids, caps or parafilm that would hinder the evaporation. The characterization took place by sampling the solutions every 24 hours and analysing them with a spectrophotometer. The withdrawn amount was replenished with deionized water.
Some specifications: • the clay suspended in solution A has an active ingredient content by weight of approximately 92 mg; • in order to make a comparison, and therefore to evaluate whether the formulation actually makes the dicamba less volatile, the amount by weight of the active ingredient inserted in solution B is identical to that adsorbed on the clay, that is 92 mg; • the weighing of the solutions, to evaluate the amount of evaporated substance, also includes the contribution of water. […]

[4] = literature; cited from earlier work

For `COc1c(Cl)ccc(Cl)c1C(=O)O` [dicamba, 3,6-dichloro-2-methoxybenzoic acid], the solubility in water ([1]; pH approximately 2 (no pH adjustment)) is listed as roughly 8 mg/mL (≈ 36.2 mM), the solubility in water ([1]; pH values higher than 4.1) is listed as greater than 250 mg/mL and the vapour pressure [2] is listed as 2.6·10^−8 atm. The “herbicide loss by volatilization (in words)” value [3] was “initial rapid volatilization and to a subsequent slow and progressive loss in mass” and the “half-life time, most frequently reported values” [4] was “lower than 20 days”.
